According to patent US7265103B2, “Substituted amino isoxazoline derivatives and their use as anti-depressants” (Janssen Pharmaceutica NV., priority 2002, dated 2007):
Where a name gives a salt, the structure may show the parent alone.

How the values were obtained:
[1] = biological target: T1, hα2A receptor (Homo sapiens, UniProt P08913); assay: Radioligand binding experiment for α2A-adrenergic receptor ([3H]-raulwolscine); settings: CHO cell membranes with human α2A receptor, [3H]raulwolscine 1 nM; read-out: pIC50 α2A (converted)
T1 construct: expressed in transfected cells; host or cells: CHO cells
T1 sequence (P08913 1-465): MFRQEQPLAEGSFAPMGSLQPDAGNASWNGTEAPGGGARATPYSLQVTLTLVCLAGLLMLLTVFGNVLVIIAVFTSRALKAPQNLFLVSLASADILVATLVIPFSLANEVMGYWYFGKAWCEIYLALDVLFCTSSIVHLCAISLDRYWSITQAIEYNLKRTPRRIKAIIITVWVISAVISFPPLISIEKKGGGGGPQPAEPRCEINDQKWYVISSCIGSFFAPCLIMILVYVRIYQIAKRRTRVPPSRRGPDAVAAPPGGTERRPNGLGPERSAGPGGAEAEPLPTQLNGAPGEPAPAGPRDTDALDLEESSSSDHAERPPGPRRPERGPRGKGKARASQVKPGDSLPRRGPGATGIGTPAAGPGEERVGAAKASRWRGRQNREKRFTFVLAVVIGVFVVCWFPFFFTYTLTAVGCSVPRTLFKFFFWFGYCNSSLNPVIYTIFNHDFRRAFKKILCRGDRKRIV
Outline: (§1)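 Membranes from CHO cells stably expressing human α2A or α2C receptors (sodium butyrate-induced) incubated with 1 nM [3H]raulwolscine in 25 mM glycylglycine pH 8.0 for 60 min at 25° C, then filtered. Non-specific binding defined with 1 μM oxymetazoline (α2A) or 1 μM spiroxatrine (α2C); pIC50 from sigmoidal competition curves.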

[2] = biological target: T2, h5-HT transporter (Homo sapiens, UniProt P31645); assay: Radioligand binding experiment for 5-HT transporter ([3H]paroxetine); settings: human platelet membranes, [3H]paroxetine 0.5 nM
T2 construct: Human platelet membranes (Oceanix Biosciences Corporation, Hanover, Md., USA) were thawed; tissue Oceanix Biosciences Corporation; host or cells: human platelet membranes
T2 sequence (P31645 whole entry): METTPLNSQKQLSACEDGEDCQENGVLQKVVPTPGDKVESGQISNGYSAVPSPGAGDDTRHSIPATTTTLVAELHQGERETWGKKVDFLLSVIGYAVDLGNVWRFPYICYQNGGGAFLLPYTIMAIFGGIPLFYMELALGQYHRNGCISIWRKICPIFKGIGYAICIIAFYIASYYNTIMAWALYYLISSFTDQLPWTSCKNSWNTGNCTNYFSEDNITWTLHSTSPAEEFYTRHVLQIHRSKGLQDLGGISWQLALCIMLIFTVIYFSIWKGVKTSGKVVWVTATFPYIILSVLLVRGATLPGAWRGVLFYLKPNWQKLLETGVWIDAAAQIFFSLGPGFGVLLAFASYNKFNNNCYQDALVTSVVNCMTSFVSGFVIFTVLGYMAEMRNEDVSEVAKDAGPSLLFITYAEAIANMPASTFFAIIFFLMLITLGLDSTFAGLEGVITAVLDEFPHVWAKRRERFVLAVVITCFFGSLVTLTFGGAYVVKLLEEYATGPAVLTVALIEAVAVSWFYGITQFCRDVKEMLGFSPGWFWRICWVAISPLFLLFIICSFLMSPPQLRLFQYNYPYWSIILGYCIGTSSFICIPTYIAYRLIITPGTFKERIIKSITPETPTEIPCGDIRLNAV
Outline: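 Competition binding on human platelet membranes (50-100 μg protein) in 50 mM Tris-HCl, 120 mM NaCl, 5 mM KCl with 0.5 nM [3H]paroxetine, 60 min at 25 °C, filtration and scintillation counting. Non-specific binding defined with 1 μM imipramine; pIC50 from nonlinear sigmoidal fits of percent total binding.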

[3] = biological target: T3, hα2C receptor (Homo sapiens, UniProt P18825); assay: Radioligand binding experiment for α2C-adrenergic receptor ([3H]-raulwolscine); settings: CHO cell membranes with human α2C receptor, [3H]raulwolscine 1 nM; read-out: pIC50 α2C (converted)
T3 construct: expressed in transfected cells; host or cells: CHO cells
T3 sequence (P18825 1-462): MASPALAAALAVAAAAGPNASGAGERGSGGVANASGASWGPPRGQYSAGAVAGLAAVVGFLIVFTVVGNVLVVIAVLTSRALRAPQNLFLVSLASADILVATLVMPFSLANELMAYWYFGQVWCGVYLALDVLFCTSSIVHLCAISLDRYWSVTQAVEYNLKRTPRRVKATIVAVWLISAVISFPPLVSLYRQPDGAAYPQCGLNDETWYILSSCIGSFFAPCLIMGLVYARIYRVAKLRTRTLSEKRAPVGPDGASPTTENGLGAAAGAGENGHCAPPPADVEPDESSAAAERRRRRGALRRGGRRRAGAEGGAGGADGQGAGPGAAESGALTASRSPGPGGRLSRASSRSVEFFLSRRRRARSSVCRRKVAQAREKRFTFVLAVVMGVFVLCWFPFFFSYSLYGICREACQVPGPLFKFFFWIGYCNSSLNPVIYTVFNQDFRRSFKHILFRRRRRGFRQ
Outline: as §1

| Structure (SMILES) | melting point [°C] | IC50 [1] [nM] | IC50 [2] [nM] | IC50 [3] [nM] |
| --- | --- | --- | --- | --- |
| C/C(=C\c1ccccc1)CN1CCN(CC2ON=C3c4ccc(NCc5ccccc5)cc4OCC32)CC1 (stereo not drawn) [Compound 2] | 108.9 to 114.7 | 15.8 | 31.6 | – |
| COc1ccc(NC(=O)Nc2ccc3c(c2)OCC2C3=NOC2CN2CCN(C/C(C)=C/c3ccccc3)CC2)cc1OC (stereo not drawn) [Compound 7] | 202.2 to 207.1 | 15.8 | 31.6 | 5.01 |
| COc1cc2c(cc1NCCN(C)C)OCC1C2=NOC1CN1CCN(C/C(C)=C/c2ccccc2)CC1 (stereo not drawn) [Compound 9] | 154.5 to 157.9 | 5.01 | 5.01 | 1000 |
| COCC(=O)N1CCOc2cc3c(cc21)OCC1C3=NOC1CN1CCN(C/C(C)=C/c2ccccc2)CC1 (stereo not drawn) [Compound 15] | 118.9 to 127.6 | 3.16 | 10 | 0.794 |
| COc1cc2c(cc1NCCN1CCCC1)OCC1C2=NOC1CN1CCN(CC(C)=Cc2ccccc2)CC1 (stereo not drawn) [Compound 26] | 120.4 to 123 | 5.01 | 3.16 | < 1 |
| CC(=Cc1ccccc1)CN1CCN(CC2ON=C3c4ccc(Nc5ccccc5)cc4OCC32)CC1 (stereo not drawn) [Compound 40] | 127.1 to 131.4 | 15.8 | 50.1 | 10 |
| CC(=Cc1ccccc1)CN1CCN(CC2ON=C3c4ccc(N(C)c5ccccc5)cc4OCC32)CC1 (stereo not drawn) [Compound 41] | 125.9 to 139.7 | 25.1 | 158 | 25.1 |
| CC(=Cc1ccccc1)CN1CCN(CC2ON=C3c4ccc(Nc5cccc(C#N)c5)cc4OCC32)CC1 (stereo not drawn) [Compound 44] | 152.7 to 162.6 | 15.8 | 15.8 | 20 |
| CC(=Cc1ccccc1)CN1CCN(CC2ON=C3c4ccc(Nc5ccccc5C)cc4OCC32)CC1 (stereo not drawn) [Compound 45] | 133.3 to 148.9 | 20 | 79.4 | 20 |
| CC(=Cc1ccccc1)CN1CCN(CC2ON=C3c4ccc(Nc5ccc(C)c(C)c5)cc4OCC32)CC1 (stereo not drawn) [Compound 46] | 138.9 to 151.3 | 63.1 | 316 | 39.8 |
| CC(=Cc1ccccc1)CN1CCN(CC2ON=C3c4ccc(NC(=O)C(C)(C)C)cc4OCC32)CC1 (stereo not drawn) [Compound 50] | 183.4 to 190.2 | 3.16 | 15.8 | 1 |
| C=CC(=O)Nc1ccc2c(c1)OCC1C2=NOC1CN1CCN(CC(C)=Cc2ccccc2)CC1 (stereo not drawn) [Compound 54] | 136.1 to 172.9 | 1.58 | 25.1 | 0.794 |
| CC(=Cc1ccccc1)CN1CCN(CC2ON=C3c4ccc(NC(=O)NC(C)(C)C)cc4OCC32)CC1 (stereo not drawn) [Compound 61] | 98.4 to 113.5 | 7.94 | 20 | 2 |
| CC(=Cc1ccccc1)CN1CCN(CC2ON=C3c4ccc(NC(=O)Nc5ccccc5)cc4OCC32)CC1 (stereo not drawn) [Compound 64] | 180.3 to 181.6 | 25.1 | 251 | 15.8 |
| CC(=Cc1ccccc1)CN1CCN(CC2ON=C3c4ccc(NC(=O)Nc5cccc(F)c5)cc4OCC32)CC1 (stereo not drawn) [Compound 65] | 186.8 to 188.5 | 79.4 | 1580 | 31.6 |
| CC(=Cc1ccccc1)CN1CCN(CC2ON=C3c4ccc(N(S(C)(=O)=O)S(C)(=O)=O)cc4OCC32)CC1 (stereo not drawn) [Compound 66] | 201.8 to 202.9 | 5.01 | 39.8 | 0.501 |
| COc1cc2c(cc1N1CCN(C)CC1)OCC1C2=NOC1CN1CCN(CC(C)=Cc2ccccc2)CC1 (stereo not drawn) [Compound 75] | 142.8 to 144.4 | 1.58 | 7.94 | < 1 |

Second part, the compound after the results:

| melting point [°C] | IC50 [1] [nM] | IC50 [2] [nM] | IC50 [3] [nM] | Structure (SMILES) |
| --- | --- | --- | --- | --- |
| 199 to 235.5 | – | – | – | CNCCNc1ccc2c(c1)OCC1C2=NOC1CN1CCN(CC(C)=Cc2ccc(F)cc2)CC1 (stereo not drawn) (as salt: HCl) [Compound 20] |
| 177 to 194.1 | 79.4 | 39.8 | 31.6 | C/C(=C\c1ccc(F)cc1)CN1CCN(CC2ON=C3c4ccc(NS(=O)(=O)c5ccc(C)cc5)cc4OCC32)CC1 (stereo not drawn) [Compound 3] |
| 121.8 to 125.9 | 12.6 | > 1000 | 2.51 | C/C(=C\c1ccccc1)CN1CCN(CC2ON=C3c4cc(N5CCOCC5)ccc4OCC32)CC1 (stereo not drawn) [Compound 4] |
| 134.1 to 136.2 | 2.51 | 100 | 3.98 | C/C(=C\c1ccccc1)CN1CCN(CC2ON=C3c4ccc(N)cc4OCC32)CC1 (stereo not drawn) [Compound 5] |
| 112.1 to 126.7 | 3.16 | 50.1 | 2.51 | CC(=O)Nc1ccc2c(c1)OCC1C2=NOC1CN1CCN(C/C(C)=C/c2ccccc2)CC1 (stereo not drawn) [Compound 6] |
| 98.4 to 105.3 | 7.94 | 3.98 | 2 | CNCCN(C)c1ccc2c(c1)OCC1C2=NOC1CN1CCN(CC(C)=Cc2ccc(F)cc2)CC1 (stereo not drawn) [Compound 21] |
| 157.7 to 159.9 | 25.1 | 5.01 | 1.58 | COc1cc2c(cc1NCCN(C)C)OCC1C2=NOC1CN1CCN(CC(C)=Cc2ccc(F)cc2)CC1 (stereo not drawn) [Compound 24] |
| 108.3 to 121.8 | 63.1 | 3.16 | 3.98 | CC(=Cc1ccc(F)cc1)CN1CCN(CC2ON=C3c4ccc(NCCN5CCCC5)cc4OCC32)CC1 (stereo not drawn) [Compound 28] |
| 130.8 to 134.1 | 31.6 | 126 | 15.8 | CC(=Cc1ccccc1)CN1CCN(CC2ON=C3c4ccc(Nc5ccc(F)cc5)cc4OCC32)CC1 (stereo not drawn) [Compound 42] |
| 131.7 to 134.5 | 398 | 631 | 126 | COc1ccc(Nc2ccc3c(c2)OCC2C3=NOC2CN2CCN(CC(C)=Cc3ccc(F)cc3)CC2)cc1 (stereo not drawn) [Compound 43] |
| 121.1 to 136.5 | 25.1 | 39.8 | 6.31 | CC(=Cc1ccccc1)CN1CCN(CC2ON=C3c4ccc(NC(=O)NC5CCCCC5)cc4OCC32)CC1 (stereo not drawn) [Compound 62] |
| 175.3 to 177 | 7.94 | 31.6 | 1.58 | CCOC(=O)CNC(=O)Nc1ccc2c(c1)OCC1C2=NOC1CN1CCN(CC(C)=Cc2ccccc2)CC1 (stereo not drawn) [Compound 63] |
| 194.7 to 204.9 | 12.6 | 100 | 7.94 | CC(=Cc1ccc(F)cc1)CN1CCN(CC2ON=C3c4ccc(N5CCCC5)cc4OCC32)CC1 (stereo not drawn) [Compound 70] |
| 168.2 to 169.4 | 63.1 | 100 | 6.31 | CC(=Cc1ccc(F)cc1)CN1CCN(CC2ON=C3c4ccc(N5CCCCC5)cc4OCC32)CC1 (stereo not drawn) [Compound 71] |
| 156.4 to 161 | 100 | 631 | 20 | CCOC(=O)C1CCN(c2ccc3c(c2)OCC2C3=NOC2CN2CCN(CC(C)=Cc3ccc(F)cc3)CC2)CC1 (stereo not drawn) [Compound 72] |
| 147.3 to 150.6 | 39.8 | 3.16 | 2.51 | CC(=Cc1ccc(F)cc1)CN1CCN(CC2ON=C3c4ccc(N5CCN(C)CC5)cc4OCC32)CC1 (stereo not drawn) [Compound 77] |
| 203.5 to 206.2 | 251 | 200 | 7.94 | CC(=Cc1ccc(F)cc1)CN1CCN(CC2ON=C3c4ccc(N5CCN(c6ccccc6)CC5)cc4OCC32)CC1 (stereo not drawn) [Compound 79] |
